# Entries after “also recorded” stand apart in the source; their conditions may differ.
# Columns and labels:
# subjects with RRMS [1] = experiment: ALLEGRO sub-study: MT MRI, magnetization transfer ratio (MTR) of NABT, WM, GM and T2 lesions; assay type: in vivo, human; conditions: for Average MTR of T2 lesions, LS mean (SE) change / GM MTR, LS mean (SE) change / NABT MTR, LS mean (SE) change / WM MTR, LS mean (SE) change: 0.6 mg; for Average MTR of T2 lesions, treatment difference (95% CI) / GM MTR, treatment difference (95% CI) / NABT MTR, treatment difference (95% CI) / WM MTR, treatment difference (95% CI): laquinimod 0.6 mg vs placebo
# Protocol: • 1. Frequent MRI (selected countries and sites only): The cumulative number of T1-Gd enhancing lesions taken from scans obtained at months 0, 3, 6, 12, and 24, and in case the study is be extended, 30. Additional MRIs for the ancillary study are performed at months 3 and 6. • 2. Magnetization Transfer (MT) (selected countries and sites only): the change from baseline to month 12 and 24/30 months in magnetization transfer MRI. MT was assessed at months 0 (baseline), 12 and 24 (termination/early discontinuation). In case of the 6 months extended study, the last MT was performed at month 30 (termination/early discontinuation of the extended study) instead of month 24. • 3. Proton MR Spectroscopy (^1H-MRS) (selected countries and sites only): Change from baseline to 24/30 in ^1H-MRS metabolites. ^1H-MRS was assessed at months 0 (baseline), and 24 (termination/early discontinuation). In case of the 6 months extended study, the last ^1H-MRS was performed at month 30 (termination/early discontinuation of the extended study) instead of month 24. • 4. Pharmacogenetic (PGx) assessment: Blood samples for PGx parameters were collected from all subjects at screening. • 5. Brain atrophy, as defined by the percentage of change from one scan to the subsequent scan in brain volume, in addition to the measurements done in the main study (Frequent MRI Cohort). • 6. Whole blood and serum samples (selected countries and sites only) were collected for evaluation of the immunological response to treatment with laquinimod and further investigation of the potential mechanism of action. Whole blood samples were collected at months: 0, 1, 3, 6, 12 and 24. Serum samples were collected at month: 0, 1, 6, 12 and 24 (even if the study is extended to month 30). • 7. Relationship between PGx and response to laquinimod in terms of clinical, MRI and safety parameters. Patients with valid baseline and month 12, and/or month 24 MT MRI assessments were included in the analysis. Least square (LS) mean changes from baseline MTR in NABT, WM, GM and T2-lesions at months 12 and 24, and between months 12 an 24, were evaluated using a MMRM analysis.
# subjects with RRMS [2] = experiment: ALLEGRO phase III clinical trial of daily oral laquinimod 0.6 mg in RRMS; assay type: in vivo, human; conditions: laquinimod 0.6 mg daily oral, 24 months
# Protocol: A multinational (24 countries), multicenter (approximately 139 sites), randomized, double-blinded, parallel-group, placebo-controlled clinical trial (“ALLEGRO” or MS-LAQ-301) was conducted to evaluate the efficacy, safety and tolerability of daily oral administration of laquinimod 0.6 mg in subjects with RRMS for a 24 months duration. One thousand one hundred and six (1106) patients were equally randomized to either laquinimod 0.6 mg or placebo and treated in a double-blind manner and baseline characteristics were balanced between groups. The primary endpoint of the study was the number of confirmed relapses during the double-blind treatment period, which corresponds to the annualized relapse rate (ARR—number of relapses divided by total exposure of all patients). Secondary endpoints included disability as measured by Expanded Disability Status Scale (EDSS) changes confirmed at 3 months, and cumulative number of gadolinium enhancing (GdE) and new/enlarging T2 MRI lesions. Double blind treatment phase: 24 months of once-daily oral administration of daily dose of 0.6 mg laquinimod or matching placebo. Eligible subjects were equally randomized 1:1 into one of the following treatment arms: • 1. Laquinimod capsules 0.6 mg: One 0.6 mg laquinimod capsule was administered orally once daily. The 0.6 mg laquinimod capsules contain 0.6 mg of Laquinimod Acid per capsule with meglumine, and were manufactured according to the method disclosed in PCT International Application Publication No. WO/2007/146248, published Dec. 21, 2007 (see, page 10, line 5 to page 11, line 3). • 2. Matching placebo for laquinimod arm: one capsule is administered once daily. The primary endpoint was the number of confirmed relapses during the double-blind study period. […] An event was counted as a relapse if the subject's symptoms were accompanied by observed objective neurological changes consistent with at least one of the following: an increase of at least 0.5 in the EDSS score; an increase of one grade in two or more of the seven functional systems; or an increase of two grades in one functional system. […] Secondary endpoints were disability progression as measured by the EDSS and the MSFC. […] Additional predefined disability endpoints include the proportion of patients without confirmed disability progression at 24 months; confirmed disability progression (defined as change in EDSS scores ≧1.0 points for baseline EDSS 0 to 5.0 or ≧5.5) sustained for six months; the accumulation of physical disability as measured by mean EDSS and the mean change in EDSS from baseline to last observed value (LOV). […]
# [3] = tested on: subject afflicted by tremor or spasticity; experiment: Example 3: oral laquinimod in treating tremor and spasticity; assay type: in vivo
# Protocol: A composition comprising laquinimod as described herein is administered to a subject afflicted by tremor. […] A composition comprising laquinimod as described herein is administered to a subject afflicted by tremor. […] A composition comprising laquinimod as described herein is administered to a subject afflicted by spasticity. […] A composition comprising laquinimod as described herein is administered to a subject afflicted by tremor.
compound,measurement,setting,value
CCN(C(=O)c1c(O)c2c(Cl)cccc2n(C)c1=O)c1ccccc1 [Laquinimod],"Average MTR of T2 lesions, LS mean (SE) change",subjects with RRMS [1]; Baseline to Month 12,0.39 (0.25)
same,"GM MTR, LS mean (SE) change",subjects with RRMS [1]; Baseline to Month 12,0.30 (0.13)
same,"NABT MTR, LS mean (SE) change",subjects with RRMS [1]; Baseline to Month 12,0.31 (0.12)
same,"WM MTR, LS mean (SE) change",subjects with RRMS [1]; Baseline to Month 12,0.32 (0.13)
same,"Average MTR of T2 lesions, treatment difference (95% CI)",subjects with RRMS [1]; Baseline to Month 12,"0.38 (−0.26, 1.01) p = 0.239"
same,"GM MTR, treatment difference (95% CI)",subjects with RRMS [1]; Baseline to Month 12,"0.41 (0.08, 0.74) p = 0.014"
same,"NABT MTR, treatment difference (95% CI)",subjects with RRMS [1]; Baseline to Month 12,"0.40 (0.09, 0.71) p = 0.013"
same,"WM MTR, treatment difference (95% CI)",subjects with RRMS [1]; Baseline to Month 12,"0.40 (0.09, 0.72) p = 0.013"
same,"Average MTR of T2 lesions, LS mean (SE) change",subjects with RRMS [1]; Baseline to Month 24,0.46 (0.29)
same,"GM MTR, LS mean (SE) change",subjects with RRMS [1]; Baseline to Month 24,0.14 (0.16)
same,"NABT MTR, LS mean (SE) change",subjects with RRMS [1]; Baseline to Month 24,0.23 (0.15)
same,"WM MTR, LS mean (SE) change",subjects with RRMS [1]; Baseline to Month 24,0.27 (0.16)
same,"Average MTR of T2 lesions, treatment difference (95% CI)",subjects with RRMS [1]; Baseline to Month 24,"0.53 (−0.23, 1.28) p = 0.168"
same,"GM MTR, treatment difference (95% CI)",subjects with RRMS [1]; Baseline to Month 24,"0.47 (0.04, 0.90) p = 0.034"
same,"NABT MTR, treatment difference (95% CI)",subjects with RRMS [1]; Baseline to Month 24,"0.50 (0.10, 0.89) p = 0.015"
same,"WM MTR, treatment difference (95% CI)",subjects with RRMS [1]; Baseline to Month 24,"0.53 (0.13, 0.94) p = 0.011"
same,"Average MTR of T2 lesions, LS mean (SE) change",subjects with RRMS [1]; Month 12 to Month 24,0.07 (0.24)
same,"GM MTR, LS mean (SE) change",subjects with RRMS [1]; Month 12 to Month 24,−0.16 (0.15)
same,"NABT MTR, LS mean (SE) change",subjects with RRMS [1]; Month 12 to Month 24,−0.08 (0.14)
same,"WM MTR, LS mean (SE) change",subjects with RRMS [1]; Month 12 to Month 24,−0.05 (0.13)
same,"Average MTR of T2 lesions, treatment difference (95% CI)",subjects with RRMS [1]; Month 12 to Month 24,"0.15 (−0.51, 0.81) p = 0.651"
same,"GM MTR, treatment difference (95% CI)",subjects with RRMS [1]; Month 12 to Month 24,"0.06 (−0.37, 0.49) p = 0.787"
same,"NABT MTR, treatment difference (95% CI)",subjects with RRMS [1]; Month 12 to Month 24,"0.10 (−0.31, 0.50) p = 0.642"
same,"WM MTR, treatment difference (95% CI)",subjects with RRMS [1]; Month 12 to Month 24,"0.13 (−0.24, 0.51) p = 0.486"
same,Annualized relapse rates,subjects with RRMS [2],effectively reduced annualized relapse rates
same,Brain atrophy,subjects with RRMS [2],reduced brain atrophy
same,Development of new lesions,subjects with RRMS [2],reduced the development of new lesions
same,Progression of disability,subjects with RRMS [2],slowed the progression of disability
same,Spasticity in the subject,[3]; subject afflicted by spasticity,effective to inhibit spasticity; also recorded: effective to reduce spasticity
same,Tremor in the subject,[3]; subject afflicted by tremor,effective to inhibit tremor; also recorded: effective to reduce tremor

# Reference: patent publication US20160296511A1, “LAQUINIMOD FOR REDUCING THALAMIC DAMAGE IN MULTIPLE SCLEROSIS” (Teva Pharmaceutical Industries, Ltd., priority 2012, published 2016)
